From patent publication US20210290610A1, “COMBINATION OF FXR AGONISTS” (priority 2016, published 2021)

What was measured:
[1] = tested on: nonalcoholic steatohepatitis patients; details: cited from earlier work
[2] = tested on: STAM Model of Non-alcoholic Steatohepatitis; assay: In vivo efficacy study in the STAM model of non-alcoholic steatohepatitis; parameters: species or system C57BL/6 mice; details: for NAFLD Activity Score (NAS) compared with the STAM-Vehicle group: FIG. 1.1
Source text: Example: In Vivo Efficacy Study of cenicriviroc in combination with Compound A (“NVP-CH-4”) and Compound B (“NVP-CH-5”) in the STAM Model of Non-alcoholic Steatohepatitis (Treatment period: 6 to 9 wks or 9 to12 wks)
The study involves 14-day-pregnant C57BL/6 mice. NASH was established by a single subcutaneous injection of […] streptozotocin (Sigma, USA) after birth and feeding with a high fat diet (HFD, 57% kcal fat, CLEA Japan, Japan) ad libitum after 4 weeks of age (day 28±2). Randomization of NASH mice into six groups of 12 mice at 6 weeks of age (day 42±2) and six groups of 12 mice at 9 weeks of age (day 63±2), the day before the start of treatment, respectively. NASH animals were dosed from age 6-9 weeks (Study 1), or from age 9-12 weeks (Study 2) with either: vehicle, cenicriviroc, Compound A (“NVP-CH-4”), Compound B (“NVP-CH-5”), cenicriviroc+Compound A or cenicriviroc+Compound B. A non-disease vehicle-control group of 12 mice was included in both Study 1 and Study 2. These animals were fed with a normal diet (CE-2; CLEA Japan) ad libitum.
PK samples were collected and stored at −60° C. Animals were dosed according to the dosing schedule below. Each animal was sacrificed 5 hours after last morning dose on the last day of study treatment (the evening dose of cenicriviroc or vehicle […] that day due to sacrifice).
Dosing: • Cenicriviroc was prepared in 0.5% (w/v) methylcellulose with 1% Tween® 80 in sterile water for injection (USP). • Compound A and Compound B were prepared in 0.5% (w/v) methylcellulose (400 cPs) aqueous solution containing 0.5% (v/v) polysorbate 80, NF, in reverse osmosis water. • In general, cenicriviroc monotherapy was administered twice daily, 12 hours apart (AM and PM). For Compound A or Compound B monotherapy groups, drug was administered once daily in the morning with vehicle alone in the evening (12 hours after the morning dose).
End of Treatment Measurements: Mice were sacrificed at 9 weeks of age (study 1) or at 12 weeks of age (study 2).
The following biochemical assays were performed: Non-fasting blood glucose in whole blood by Life Check (Eidia, Japan); serum ALT by FUJI DRI-CHEM (Fujifilm, Japan); serum triglyceride; serum MCP-1, RANTES (CCLS) and MIP-1α/MIP-1 quantification by a commercial ELISA kit; liver triglyceride by Triglyceride E-test kit (Wako, Japan); liver hydroxyproline quantification by hydrolysis method; histological analyses for liver section; HE staining and estimation of NAFLD Activity score; Sirius-red staining and estimation of fibrosis area (with and without perivascular space subtracted); oil red staining and estimation of fat deposition area; F4/80 immunohistochemistry staining and estimation of inflammation area; alpha-SMA immunohistochemistry staining and estimation of α-SMA positive area Gene expression assays using total RNA from the liver.
Statistical tests were performed using one-way ANOVA followed by Dunnett's test and the Mann-Whitney test, as appropriate, for the multiple group comparisons. P values <0.05 are considered statistically significant.

[3] = tested on: NASH in adults with liver fibrosis; details: cited from earlier work
PBC = PBC patients; cited from earlier work
[4] = Study 1, treatment week 6-9, CVC 50 mg/kg AM and PM, Compound A 0.1 mg/kg, Compound B 10 mg/kg
[5] = Study 2, treatment week 9-12, same doses
[6] = NASH adults with liver fibrosis, one year

SMILES: CC[C@H]1[C@@H](O)[C@@H]2[C@H](CC[C@]3(C)[C@@H]([C@H](C)CCC(=O)O)CC[C@@H]23)[C@@]2(C)CC[C@@H](O)C[C@@H]12 [obeticholic acid, Obeticholic acid]
- safety concerns of long term administration [1]: can be associated with pruritus, as well as with increased LDL cholesterol

SMILES: Cn1nc(C(=O)N(Cc2ccccc2)Cc2ccc(C(=O)O)cc2)c2c1-c1cc(Cl)ccc1OC2 [Compound B, 4-((N-benzyl-8-chloro-1-methyl-1,4-dihydrochromeno[4,3-c]pyrazole-3 carboxamido)methyl)benzoic acid]
- NAFLD Activity Score (NAS) compared with the STAM-Vehicle group [2, 4]: significant reductions in NAS
- inflammatory cell infiltration score compared with the STAM-Vehicle group ([2]; Study 1, week 6-9, FIG. 1.2): significant reductions in the inflammatory cell infiltration score
- NAFLD Activity Score (NAS) compared with the STAM-Vehicle group [2, 5]: significant reductions in NAS

SMILES: CCCCOCCOc1ccc(-c2ccc3c(c2)/C=C(/C(=O)Nc2ccc([S@@+]([O-])Cc4cncn4CCC)cc2)CCCN3CC(C)C)cc1 [CVC, (S,E)-8-(4-(2-butoxyethoxy)phenyI)-1-(2-methylpropyl)-N-(4-(((1-propyl-1H-imidazol-5-yl)methyl)sulfinyl)phenyl)-1,2,3,4-tetrahydrobenzo[b]azocine-5-carboxamide]
- NAFLD Activity Score (NAS) compared with the STAM-Vehicle group [2, 4]: significant reductions in NAS
- fibrosis [3, 6]: reduction of fibrosis
- improvement of NAS [3, 6]: no significant impact
- adverse effects ([3]; patients): can induce fatigue or diarrhea in a small part of the patients

SMILES: C[C@H](CCC(=O)O)[C@H]1CC[C@H]2[C@@H]3[C@@H](O)C[C@@H]4C[C@H](O)CC[C@]4(C)[C@H]3CC[C@]12C [UDCA, Ursodeoxycholic acid]
- population that does not respond (PBC): 30-40%

SMILES: O=C(O)c1cc(F)c2nc(N3C4CCC3CC(OCc3c(-c5ccccc5OC(F)(F)F)noc3C3CC3)C4)sc2c1 (centres unmarked) [Compound A, 2-[3-({5-cyclopropyl-3-[2-(trifluoromethoxy)phenyl]-1,2-oxazol-4-yl}methoxy)-8-azabicyclo[3.2.1]octan-8-yl]-4-fluoro-1,3-benzothiazole-6-carboxylic acid]
- NAFLD Activity Score (NAS) compared with the STAM-Vehicle group [2, 4]: significant reductions in NAS
- NAFLD Activity Score (NAS) compared with the STAM-Vehicle group [2, 5]: significant reductions in NAS
